Source: patent US20150087627A1, “COMBINATION OF KINASE INHIBITORS AND USES THEREOF” (Intellikine LLC, priority 2011, published 2015)
pIC50: −log10 of the molar value. Like-named read-outs stand apart in the source and are kept apart here.

Key:
Format in all cases: biochemical
PI3K α (p110α/p85α) = biological target: T1, PI3K α (p110α/p85α) (Homo sapiens, UniProt P42336); assay: PI 3-Kinase (human) HTRF assay, PI3K α; details: read-out: PI3K α IC50
T1 construct: purchased Upstate / Millipore Corporation

PI3K γ (p110γ) = biological target: T2, PI3K γ (p110γ) (Homo sapiens, UniProt P48736); assay: PI 3-Kinase (human) HTRF assay, PI3K γ; details: read-out: PI3K γ IC50
T2 construct: purchased Upstate / Millipore Corporation

PI3K δ = biological target: T3, PI3K δ (Homo sapiens, UniProt O00329); assay: PI 3-Kinase (human) HTRF assay, PI3K δ; details: read-out: PI3K δ IC50
T3 construct: purchased Upstate / Millipore Corporation

PI3K β (p110β/p85α) = biological target: T4, PI3K β (p110β/p85α) (Homo sapiens, UniProt P42338); assay: PI 3-Kinase (human) HTRF assay, PI3K β; details: read-out: PI3K β IC50
T4 construct: purchased Upstate / Millipore Corporation
T4 sequence (P42338 whole entry): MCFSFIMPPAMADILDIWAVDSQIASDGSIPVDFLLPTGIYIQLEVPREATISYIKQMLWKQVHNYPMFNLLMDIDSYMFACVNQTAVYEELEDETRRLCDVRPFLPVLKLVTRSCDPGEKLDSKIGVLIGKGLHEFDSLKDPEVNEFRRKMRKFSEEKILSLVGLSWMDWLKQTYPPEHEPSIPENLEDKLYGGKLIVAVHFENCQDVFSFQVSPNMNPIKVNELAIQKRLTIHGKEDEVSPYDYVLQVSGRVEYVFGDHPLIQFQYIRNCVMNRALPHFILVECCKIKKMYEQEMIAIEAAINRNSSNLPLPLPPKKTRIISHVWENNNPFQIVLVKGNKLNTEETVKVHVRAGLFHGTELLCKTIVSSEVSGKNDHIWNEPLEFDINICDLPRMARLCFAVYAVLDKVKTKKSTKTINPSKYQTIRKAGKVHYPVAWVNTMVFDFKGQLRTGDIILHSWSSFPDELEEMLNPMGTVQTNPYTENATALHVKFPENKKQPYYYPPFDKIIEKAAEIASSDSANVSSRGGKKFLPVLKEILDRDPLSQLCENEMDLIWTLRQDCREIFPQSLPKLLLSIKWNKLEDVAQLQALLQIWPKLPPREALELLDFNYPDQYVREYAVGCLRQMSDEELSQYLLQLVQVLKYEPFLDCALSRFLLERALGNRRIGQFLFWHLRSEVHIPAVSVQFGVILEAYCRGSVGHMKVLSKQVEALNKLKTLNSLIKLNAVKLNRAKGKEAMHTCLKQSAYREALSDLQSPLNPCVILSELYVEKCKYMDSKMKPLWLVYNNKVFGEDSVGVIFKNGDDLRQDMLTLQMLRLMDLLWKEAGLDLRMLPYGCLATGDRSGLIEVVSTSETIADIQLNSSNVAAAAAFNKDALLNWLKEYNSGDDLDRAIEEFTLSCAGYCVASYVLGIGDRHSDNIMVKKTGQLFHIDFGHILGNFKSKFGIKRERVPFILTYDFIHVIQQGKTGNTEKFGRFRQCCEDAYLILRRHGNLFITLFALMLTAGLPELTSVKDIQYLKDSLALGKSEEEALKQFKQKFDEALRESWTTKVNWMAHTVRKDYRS
T4 sequence (P27986 whole entry partner): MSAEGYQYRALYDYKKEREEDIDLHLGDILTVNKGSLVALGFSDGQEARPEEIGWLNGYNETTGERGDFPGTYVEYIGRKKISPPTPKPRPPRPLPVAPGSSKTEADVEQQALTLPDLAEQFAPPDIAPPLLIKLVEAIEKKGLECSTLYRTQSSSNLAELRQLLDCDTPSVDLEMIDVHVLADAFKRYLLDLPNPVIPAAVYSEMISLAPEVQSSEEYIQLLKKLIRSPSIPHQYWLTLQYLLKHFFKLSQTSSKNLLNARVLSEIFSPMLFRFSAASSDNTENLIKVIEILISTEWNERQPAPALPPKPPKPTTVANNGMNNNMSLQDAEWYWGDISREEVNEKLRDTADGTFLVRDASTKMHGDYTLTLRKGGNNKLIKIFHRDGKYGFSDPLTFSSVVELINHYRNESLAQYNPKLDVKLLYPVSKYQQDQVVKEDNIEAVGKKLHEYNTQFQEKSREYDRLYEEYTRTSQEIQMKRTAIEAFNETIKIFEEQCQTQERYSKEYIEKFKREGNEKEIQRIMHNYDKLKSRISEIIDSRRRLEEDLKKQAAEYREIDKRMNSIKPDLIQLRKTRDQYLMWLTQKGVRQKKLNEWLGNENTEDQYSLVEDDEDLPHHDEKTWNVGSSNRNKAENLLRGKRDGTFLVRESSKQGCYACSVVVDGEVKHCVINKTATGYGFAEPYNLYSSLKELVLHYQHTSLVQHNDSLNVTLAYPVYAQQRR

T3 sequence (O00329 whole entry): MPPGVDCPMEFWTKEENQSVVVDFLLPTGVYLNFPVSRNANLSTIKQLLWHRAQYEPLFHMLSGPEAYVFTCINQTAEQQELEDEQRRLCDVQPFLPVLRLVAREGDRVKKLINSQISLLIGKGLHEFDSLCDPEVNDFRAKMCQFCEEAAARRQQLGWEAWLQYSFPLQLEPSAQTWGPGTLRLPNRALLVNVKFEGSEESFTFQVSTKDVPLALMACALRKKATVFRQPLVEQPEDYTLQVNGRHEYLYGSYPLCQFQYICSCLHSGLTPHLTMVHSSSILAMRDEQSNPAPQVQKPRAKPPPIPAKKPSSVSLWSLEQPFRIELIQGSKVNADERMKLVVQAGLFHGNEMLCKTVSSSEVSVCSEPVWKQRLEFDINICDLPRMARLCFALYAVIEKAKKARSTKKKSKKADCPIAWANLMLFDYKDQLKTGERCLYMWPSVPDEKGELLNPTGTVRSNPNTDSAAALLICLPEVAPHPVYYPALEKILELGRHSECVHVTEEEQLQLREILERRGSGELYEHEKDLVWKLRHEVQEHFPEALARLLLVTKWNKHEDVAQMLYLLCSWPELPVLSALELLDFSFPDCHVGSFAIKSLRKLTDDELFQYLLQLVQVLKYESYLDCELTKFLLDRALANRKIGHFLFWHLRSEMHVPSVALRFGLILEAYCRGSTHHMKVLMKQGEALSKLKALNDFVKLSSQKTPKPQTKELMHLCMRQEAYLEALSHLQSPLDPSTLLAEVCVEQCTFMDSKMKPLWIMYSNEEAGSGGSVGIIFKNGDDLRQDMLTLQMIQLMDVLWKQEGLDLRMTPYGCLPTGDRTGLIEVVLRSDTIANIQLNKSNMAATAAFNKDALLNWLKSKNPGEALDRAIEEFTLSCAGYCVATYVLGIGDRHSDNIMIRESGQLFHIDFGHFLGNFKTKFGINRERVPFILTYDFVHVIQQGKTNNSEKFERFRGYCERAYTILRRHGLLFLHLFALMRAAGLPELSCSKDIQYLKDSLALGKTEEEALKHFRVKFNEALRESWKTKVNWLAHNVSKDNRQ
T3 sequence (P27986 whole entry partner): as the sequence (P27986 whole entry partner) above
T2 sequence (P48736 whole entry): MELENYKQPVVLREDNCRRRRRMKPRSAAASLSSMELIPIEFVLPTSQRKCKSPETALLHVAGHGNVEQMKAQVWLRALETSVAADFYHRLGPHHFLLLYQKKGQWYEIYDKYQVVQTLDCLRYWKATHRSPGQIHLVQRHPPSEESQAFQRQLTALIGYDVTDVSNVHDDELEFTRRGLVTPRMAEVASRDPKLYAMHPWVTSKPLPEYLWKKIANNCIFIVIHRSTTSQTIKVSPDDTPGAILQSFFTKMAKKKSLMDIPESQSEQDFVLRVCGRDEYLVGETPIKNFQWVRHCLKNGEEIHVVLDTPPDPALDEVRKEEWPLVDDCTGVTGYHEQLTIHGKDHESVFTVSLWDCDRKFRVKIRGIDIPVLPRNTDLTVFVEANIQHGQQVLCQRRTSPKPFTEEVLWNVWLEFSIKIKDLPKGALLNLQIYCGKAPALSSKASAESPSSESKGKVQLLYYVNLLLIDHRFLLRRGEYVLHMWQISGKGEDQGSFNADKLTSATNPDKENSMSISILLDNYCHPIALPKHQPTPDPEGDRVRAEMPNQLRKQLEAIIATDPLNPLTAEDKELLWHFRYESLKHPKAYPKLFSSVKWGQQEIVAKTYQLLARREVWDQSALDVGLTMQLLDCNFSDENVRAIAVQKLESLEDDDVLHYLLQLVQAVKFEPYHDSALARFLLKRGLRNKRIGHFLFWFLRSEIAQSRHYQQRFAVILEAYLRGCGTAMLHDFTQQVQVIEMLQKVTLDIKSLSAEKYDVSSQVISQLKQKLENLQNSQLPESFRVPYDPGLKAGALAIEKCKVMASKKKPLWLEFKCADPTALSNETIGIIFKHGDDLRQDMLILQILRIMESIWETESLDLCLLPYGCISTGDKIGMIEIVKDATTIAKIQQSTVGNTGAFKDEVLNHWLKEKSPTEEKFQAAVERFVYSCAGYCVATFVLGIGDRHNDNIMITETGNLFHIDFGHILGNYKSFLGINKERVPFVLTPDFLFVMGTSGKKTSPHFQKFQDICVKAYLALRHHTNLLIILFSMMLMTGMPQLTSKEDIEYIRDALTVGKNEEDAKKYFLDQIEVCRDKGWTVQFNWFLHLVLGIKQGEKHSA
T1 sequence (P42336 whole entry): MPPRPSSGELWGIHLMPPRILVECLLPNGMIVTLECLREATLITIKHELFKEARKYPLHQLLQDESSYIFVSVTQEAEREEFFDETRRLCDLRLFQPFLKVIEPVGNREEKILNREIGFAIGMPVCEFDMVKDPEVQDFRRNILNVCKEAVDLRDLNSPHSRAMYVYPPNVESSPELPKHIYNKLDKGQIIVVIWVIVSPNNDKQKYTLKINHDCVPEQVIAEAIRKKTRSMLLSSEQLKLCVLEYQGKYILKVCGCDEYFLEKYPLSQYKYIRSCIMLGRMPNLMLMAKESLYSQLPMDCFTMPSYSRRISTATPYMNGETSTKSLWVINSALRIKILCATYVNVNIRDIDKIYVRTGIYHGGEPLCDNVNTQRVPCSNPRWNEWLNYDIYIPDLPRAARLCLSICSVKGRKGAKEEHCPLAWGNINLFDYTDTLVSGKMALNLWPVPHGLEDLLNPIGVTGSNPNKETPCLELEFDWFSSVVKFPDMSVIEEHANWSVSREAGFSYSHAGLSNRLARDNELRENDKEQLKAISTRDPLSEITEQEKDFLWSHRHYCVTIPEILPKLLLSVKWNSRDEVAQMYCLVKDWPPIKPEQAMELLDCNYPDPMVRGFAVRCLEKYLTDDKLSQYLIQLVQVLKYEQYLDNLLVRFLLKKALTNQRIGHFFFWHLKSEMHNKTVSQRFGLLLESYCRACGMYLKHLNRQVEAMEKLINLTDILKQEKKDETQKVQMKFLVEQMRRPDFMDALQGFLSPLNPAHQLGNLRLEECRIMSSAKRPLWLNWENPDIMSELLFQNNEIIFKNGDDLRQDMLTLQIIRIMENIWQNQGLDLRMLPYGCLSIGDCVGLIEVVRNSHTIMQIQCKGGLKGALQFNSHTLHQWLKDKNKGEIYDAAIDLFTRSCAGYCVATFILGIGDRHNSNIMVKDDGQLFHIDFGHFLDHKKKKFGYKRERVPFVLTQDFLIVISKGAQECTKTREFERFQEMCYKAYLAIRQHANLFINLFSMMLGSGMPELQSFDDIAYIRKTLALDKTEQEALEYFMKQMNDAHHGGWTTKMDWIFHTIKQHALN
T1 sequence (P27986 whole entry partner): as the sequence (P27986 whole entry partner) above

Structure (SMILES)	pIC50 (PI3K α (p110α/p85α))	pIC50 (PI3K γ (p110γ))	pIC50 (PI3K δ)	pIC50 (PI3K β (p110β/p85α))	pIC50 (PI3K β (p110β/p85α); Table 4 (PI3K α inhibitors))	pIC50 (PI3K α (p110α/p85α); Table 4 (PI3K α inhibitors))	pIC50 (PI3K δ; Table 4 (PI3K α inhibitors))	pIC50 (PI3K γ (p110γ); Table 4 (PI3K α inhibitors))
Nc1nc2cc(-c3ccc4nccc(CCN5CCOCC5)c4c3)ccc2o1 [Compound 27]	> 6.00	> 7.00	> 5.00					
Nc1nc2cc(-c3ccc4nccc(N5CCOCC5)c4c3)ccc2o1 [Compound 28]	> 7.00	> 7.00	> 6.00					
Nc1nc2cc(-c3ccc4ncnc(N5CCC(O)CC5)c4c3)ccc2o1 [Compound 29]	> 7.00	> 7.00	> 7.00					
Cc1c(-c2ccc3oc(N)nc3c2)ccc2ncc(C(=O)N3CCOCC3)n12 [Compound 349]	< 5.00		< 5.00	< 5.00				
Cc1cc2oc(N)nc2cc1-c1ccc2ncc(C(=O)N3CCOCC3)n2c1 [Compound 352]	< 5.00		< 5.00	< 5.00				
Cc1cc(-c2ccc3oc(N)nc3c2)cc2c(C(=O)N3CCOCC3)cnn12 [Compound 357]	> 6.00		> 5.00	> 5.00				
Nc1nc2cc(-c3ccc4ncc(N5CC(N6CCOCC6)C5)nc4c3)cc(Cl)c2o1 [Compound 358]	> 7.00		> 6.00	> 6.00				
Nc1nc2cc(-c3ccc4ncc(C(=O)N5CCOCC5)n4c3)c(Cl)cc2o1 [Compound 370]	> 5.00		< 5.00	< 5.00				
Nc1nc2cc(-c3ccc4ncc(C(=O)N5CCOCC5)n4c3)c(F)cc2o1 [Compound 372]	> 6.00		> 5.00	> 5.00				
Nc1nc2cc(-c3ccc4ncc(N5CC[C@@H](N6CCOCC6)C5)nc4c3)ccc2o1 [Compound 376]	> 7.00		> 5.00	> 5.00				
Cc1c(-c2ccc3oc(N)nc3c2)ccc2ncc(N3CC(N4CCNCC4)C3)nc12 [Compound 386]	> 7.00		< 5.00	< 5.00				
COCCN1CCN(c2cnc3ccc(-c4ccc5oc(N)nc5c4)cc3n2)CC1 [Compound 387]	> 7.00		< 5.00	> 6.00				
Nc1nc2cc(-c3ccc4ncc(C(=O)N5CCOCC5)n4c3)cnc2o1 [Compound 400]	> 7.00		< 5.00	> 5.00				
Nc1nc2cc(-c3nc4cc(-c5cccnc5)cnc4s3)ccc2o1 [Compound 402]	< 5.00		< 5.00	< 5.00				
Nc1nc2cc(-c3ccc4nc(N)c(N5CC(N6CCOCC6)C5)nc4c3)ccc2o1 [Compound 404]	< 5.00		< 5.00	< 5.00				
CS(=O)(=O)Nc1nc2cc(-c3ccc4ncc(C(=O)N5CCOCC5)n4c3)ccc2o1 [Compound 405]	< 5.00		< 5.00	< 5.00				
CNc1nc2cc(-c3ccc4ncc(C(=O)N5CCOCC5)n4c3)ccc2o1 [Compound 406]	> 5.00		< 5.00	> 5.00				
COc1ncc(-c2ccc3ncc(C(=O)N4CCOCC4)n3c2)cc1N [Compound 414]	> 5.00		< 5.00	< 5.00				
COc1ncc(-c2ccc3ncc(C(=O)N4CCOCC4)n3c2)cc1NS(=O)(=O)c1cccc(F)c1 [Compound 423]	> 7.00		> 7.00	> 6.00				

Structure (SMILES)	pIC50 (PI3K α (p110α/p85α))	pIC50 (PI3K γ (p110γ))	pIC50 (PI3K δ)	pIC50 (PI3K β (p110β/p85α))	pIC50 (PI3K β (p110β/p85α); Table 4 (PI3K α inhibitors))	pIC50 (PI3K α (p110α/p85α); Table 4 (PI3K α inhibitors))	pIC50 (PI3K δ; Table 4 (PI3K α inhibitors))	pIC50 (PI3K γ (p110γ); Table 4 (PI3K α inhibitors))
Nc1nc2cc(-c3ccc4[nH]nc(N)c4c3)ccc2o1 [Compound 427]	< 5.00		< 5.00	< 5.00				
CC(=O)Nc1n[nH]c2cc(-c3ccc4oc(N)nc4c3)ccc12 [Compound 430]	> 5.00		< 5.00	> 5.00				
CC(=O)Nc1n[nH]c2ccc(-c3ccc4oc(N)nc4c3)cc12 [Compound 431]	< 5.00		< 5.00	< 5.00				
Nc1nc2ccc(-c3cc(F)c4oc(N)nc4c3)cc2o1 [Compound 433]	> 6.00		> 5.00	> 6.00				
CC(=O)Nc1nc2ccc(-c3cc(F)c4oc(N)nc4c3)cc2s1 [Compound 434]	> 7.00		> 7.00	> 7.00				
Nc1nc2cc(-c3ccc4nc(N)sc4c3)cc(F)c2o1 [Compound 436]	> 7.00		> 6.00	> 7.00				
Nc1nc2cc(-c3cc(F)c4ncc(C(=O)N5CCOCC5)n4c3)ccc2o1 [Compound 438]	> 5.00		< 5.00	< 5.00				
O=C(c1cnc2ccc(-c3cccc(S(=O)(=O)Nc4ccccc4)c3)cn12)N1CCOCC1 [Compound 440]	< 5.00		< 5.00	< 5.00				
O=C(c1cnc2ccc(-c3cccc(S(=O)(=O)Nc4cc(F)ccc4F)c3)cn12)N1CCOCC1 [Compound 441]	< 5.00		< 5.00	< 5.00				
COc1ccc(-c2ccc3ncc(C(=O)N4CCOCC4)n3c2)cc1S(=O)(=O)Nc1ccccc1 [Compound 444]	> 5.00		< 5.00	< 5.00				
O=C(c1cnc2ccc(-c3cncc(S(=O)(=O)Nc4ccccc4)c3)cn12)N1CCOCC1 [Compound 447]	> 5.00		< 5.00	< 5.00				
O=C(c1cnc2ccc(-c3cnc(Cl)c(NS(=O)(=O)c4ccccc4)c3)cn12)N1CCOCC1 [Compound 451]	> 7.00		> 7.00	> 6.00				
O=C(c1cnc2ccc(-c3cnc(Cl)c(NS(=O)(=O)c4ccccc4F)c3)cn12)N1CCOCC1 [Compound 452]	> 7.00		> 7.00	> 6.00				
COc1ccc(-c2ccc3ncc(C(=O)N4CCOCC4)n3c2)cc1NS(=O)(=O)c1ccccc1 [Compound 455]	> 5.00		< 5.00	< 5.00				
O=C(c1cnc2ccc(-c3ccc(Cl)c(NS(=O)(=O)c4ccccc4)c3)cn12)N1CCOCC1 [Compound 459]	> 6.00		< 5.00	< 5.00				
CN(C(=O)c1cnc2ccc(-c3ccc4oc(N)nc4c3)cn12)C1CCOCC1 [Compound 472]	> 7.00		> 5.00	> 5.00				
Nc1nc2cc(-c3ccc4ncc(C(=O)N5CC[C@@H](F)C5)n4c3)ccc2o1 [Compound 475]	> 7.00		> 5.00	< 5.00				
Nc1nc2cc(-c3ccc4ncc(C(=O)N5CC[C@@H](n6cccn6)C5)n4c3)ccc2o1 [Compound 477]	> 7.00		> 5.00	< 5.00				
Nc1nc2cc(-c3ccc4ncc(C(=O)N5CC[C@H](n6cccn6)C5)n4c3)ccc2o1 [Compound 478]	> 7.00		> 6.00	> 5.00				

Structure (SMILES)	pIC50 (PI3K α (p110α/p85α))	pIC50 (PI3K γ (p110γ))	pIC50 (PI3K δ)	pIC50 (PI3K β (p110β/p85α))	pIC50 (PI3K β (p110β/p85α); Table 4 (PI3K α inhibitors))	pIC50 (PI3K α (p110α/p85α); Table 4 (PI3K α inhibitors))	pIC50 (PI3K δ; Table 4 (PI3K α inhibitors))	pIC50 (PI3K γ (p110γ); Table 4 (PI3K α inhibitors))
C[C@@H]1CCCN1C(=O)c1cnc2ccc(-c3ccc4oc(N)nc4c3)cn12 [Compound 481]	> 7.00		> 5.00	> 5.00				
Nc1n[nH]c2cc(-c3ccc4ncc(C(=O)N5CCOCC5)n4c3)ccc12 [Compound 487]	< 5.00		< 5.00	< 5.00				
Nc1n[nH]c2c(-c3ccc4ncc(C(=O)N5CCOCC5)n4c3)cccc12 [Compound 490]	< 5.00		< 5.00	< 5.00				
Nc1nc2c(-c3ccc4ncc(C(=O)N5CCOCC5)n4c3)cccc2o1 [Compound 496]	> 6.00		< 5.00	> 5.00				
C[C@@H]1CN(C2CN(C(=O)c3cnc4ccc(-c5ccc6oc(N)nc6c5)cn34)C2)CCN1 [Compound 511]	> 7.00		> 6.00	> 5.00				
C[C@H]1CN(C2CN(C(=O)c3cnc4ccc(-c5ccc6oc(N)nc6c5)cn34)C2)CCN1C [Compound 512]	> 7.00		> 6.00	> 5.00				
CC1(C)COCCN1C(=O)c1cnc2ccc(-c3ccc4oc(N)nc4c3)cn12 [Compound 514]	> 6.00		< 5.00	< 5.00				
CC(C)N1CCC(n2cnc3ccc(-c4cnc(Cl)c(NS(=O)(=O)c5ccccc5)c4)cc3c2=O)CC1 [Compound 521]	> 7.00		> 7.00	> 7.00				
Nc1nc2cc(-c3cnc4ccc(C(=O)N5CCOCC5)cn34)ccc2o1 [Compound 541]	< 5.00		< 5.00	< 5.00				
Nc1nc2cc(-c3ccc4ncc(N5CCOCC5)nc4n3)ccc2o1 [Compound 553]					> 6.00	> 7.00	< 5.00	
CCOC(=O)N1CCN(c2cnc3ccc(-c4ccc5oc(N)nc5c4)nc3n2)CC1 [Compound 557]					> 6.00	> 7.00	> 6.00	
CCOC(=O)N1CC=C(c2cnc3ccc(-c4ccc5oc(N)nc5c4)nc3n2)CC1 [Compound 560]						> 7.00		> 7.00
C[C@@H]1COCCN1c1cnc2ccc(-c3ccc4oc(N)nc4c3)nc2n1 [Compound 565]						> 7.00		> 7.00
Nc1nc2cc(-c3ccc4ncc(N5CC6CCC(C5)O6)cc4n3)ccc2o1 [Compound 579]								> 6.00
C[C@@H](N)C(=O)N1CCN(c2cnc3ccc(-c4ccc5oc(N)nc5c4)nc3n2)CC1 [Compound 582]						> 7.00		> 6.00
Nc1nc2cc(-c3ccc4ncc(N5CCC(O)CC5)cc4n3)ccc2o1 [Compound 613]						> 7.00		> 6.00
C[C@H]1COCCN1C1CN(c2cnc3ccc(-c4ccc5oc(N)nc5c4)nc3c2)C1 [Compound 619]					< 5.00	> 7.00	< 5.00	
Nc1nc2cc(-c3ccc4ncc(N5CC(N6CCN(C7CC7)CC6)C5)cc4n3)ccc2o1 [Compound 621]						> 7.00		> 6.00
CN1CCN(c2ccc3ncc(-c4ccc5oc(N)nc5c4)cc3n2)CC1 [Compound 631]							< 5.00	< 5.00
